Legend:
KB [1] = experiment: Antiproliferative activity against human KB cells at 10 uM after 72 hrs by MTS test; type: functional
HL-60 = experiment: Antiproliferative activity against human HL60 cells at 10 uM after 72 hrs by MTS test; type: functional; settings: HL-60, 72 h
K562 = experiment: Antiproliferative activity against human K562 cells at 10 uM after 72 hrs by MTS test; type: functional; settings: K562, 72 h
KB [2] = experiment: Antiproliferative activity against human KB cells at 0.25 nM after 72 hrs by MTS test; type: functional
KB [3] = experiment: Antiproliferative activity against human KB cells after 72 hrs by MTS test; type: functional, cell-based

Molecule CC(=O)OC[C@H]1O[C@@H](N2C(=O)/C(=C3/C(=O)Nc4ccc(OC(F)(F)F)cc43)c3ccccc32)[C@H](OC(C)=O)[C@@H](OC(C)=O)[C@@H]1OC(C)=O has an inhibition at 10 µM (KB [1]) of 0%, an inhibition at 10 µM (HL-60) of 4% and an inhibition at 10 µM (K562) of 3%.
Work on CC(=O)O[C@@]12CO[C@@H]1C[C@H](O)[C@@]1(C)C(=O)[C@H](O)C3=C(C)[C@@H](OC(=O)[C@H](O)[C@@H](NC(=O)OC(C)(C)C)c4ccccc4)C[C@@](O)([C@@H](OC(=O)c4ccccc4)[C@H]21)C3(C)C [DOCETAXEL] yielded an inhibition at 0.00025 µM (KB [2]) of 71%, an inhibition at 10 µM (HL-60) of 46% and an inhibition at 10 µM (K562) of 32%.
With O=C1Nc2ccccc2/C1=C1\C(=O)Nc2ccccc21 [ISOINDIGO] the inhibition at 10 µM (KB [1]) was 92%, the IC50 (KB [3]) was 1600 nM and the inhibition at 10 µM (HL-60) was 53%. The inhibition at 10 µM (K562) was 64%.
